Assay results as given in US11446287B2, “Compounds and methods for EP300 or CBP modulation and indications therefor” (Opna Immuno-Oncology SA, priority 2019, dated 2022).

target: T1, Recombinant human EP300 containing the bromodomain (EP300-BD (1040-1161)) (Homo sapiens, UniProt Q09472); test: EP300 Alphascreen binding assay
T1 construct: Recombinant human EP300 bromodomain (EP300-BD (1040-1161)); made in house; host or cells: E. coli BL21-CodonPlus (DE3), modified pET vector
T1 sequence (Q09472 1040-1161): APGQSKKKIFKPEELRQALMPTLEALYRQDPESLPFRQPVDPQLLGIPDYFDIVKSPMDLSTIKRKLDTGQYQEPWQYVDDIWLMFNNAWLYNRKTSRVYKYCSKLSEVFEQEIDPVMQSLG
Method in brief: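 Displacement of a biotinylated acetyl-K56 histone H3 peptide from the N-His bromodomain construct (1040-1161) measured by AlphaScreen proximity, beads at 7.5 μg/ml final, read 60 min after addition. Protein, peptide and compound first incubated 1 h at room temperature, pH 7.5 HEPES buffer; IC50 by four-parameter logistic fit.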

Structure (SMILES)	IC50 [nM]
Cc1nn(CC(=O)N(C)C)cc1-n1cc(-c2ccc(C(=O)O)cc2OC(F)(F)F)c2cc(-c3c(C)noc3C)cnc21 [P-0366, 4-(1-(1-(2-(dimethylamino)-2-oxoethyl)-3-methyl-1H-pyrazol-4-yl)-5-(3,5-dimethylisoxazol-4-yl)-1H-pyrrolo[2,3-b]pyridin-3-yl)-3-(trifluoromethoxy)benzoic acid]	0.1 to 1000
Cc1cc(C(=O)O)cc(OCC(F)F)c1-c1cn(C2CCOCC2)c2ncc(-c3c(C)noc3C)cc12 [P-0367, 3-(2,2-difluoroethoxy)-4-(5-(3,5-dimethylisoxazol-4-yl)-1-(tetrahydro-2H-pyran-4-yl)-1H-pyrrolo[2,3-b]pyridin-3-yl)-5-methylbenzoic acid]	0.1 to 1000
COc1nc(C(=O)O)ccc1-c1cn(C2CCOCC2)c2ncc(-c3c(C)noc3C)cc12 [P-0368, 5-(5-(3,5-dimethylisoxazol-4-yl)-1-(tetrahydro-2H-pyran-4-yl)-1H-pyrrolo[2,3-b]pyridin-3-yl)-6-methoxypicolinic acid]	0.1 to 1000
Cc1noc(C)c1-c1cnc2c(c1)c(-c1c(F)cc(C(=O)O)cc1OC(C)C)cn2C(C1CC1)C1CC1 [P-0369, 4-(1-(dicyclopropylmethyl)-5-(3,5-dimethylisoxazol-4-yl)-1H-pyrrolo[2,3-b]pyridin-3-yl)-3-fluoro-5-isopropoxybenzoic acid]	0.1 to 1000
CCOc1cc(C(=O)O)cc(Cl)c1-c1cn(C(C2CC2)C2CC2)c2ncc(-c3c(C)noc3C)cc12 [P-0370, 3-chloro-4-(1-(dicyclopropylmethyl)-5-(3,5-dimethylisoxazol-4-yl)-1H-pyrrolo[2,3-b]pyridin-3-yl)-5-ethoxybenzoic acid]	0.1 to 1000
CCOc1cc(C(=O)O)cc(Cl)c1-c1cn(C2CCOCC2)c2ncc(-c3c(C)noc3C)cc12 [P-0371, 3-chloro-4-(5-(3,5-dimethylisoxazol-4-yl)-1-(tetrahydro-2H-pyran-4-yl)-1H-pyrrolo[2,3-b]pyridin-3-yl)-5-ethoxybenzoic acid]	0.1 to 1000
Cc1noc(C)c1-c1cnc2c(c1)c(-c1c(Cl)cc(C(=O)O)cc1OC(C)C)cn2C1CCOCC1 [P-0372, 3-chloro-4-(5-(3,5-dimethylisoxazol-4-yl)-1-(tetrahydro-2H-pyran-4-yl)-1H-pyrrolo[2,3-b]pyridin-3-yl)-5-isopropoxybenzoic acid]	0.1 to 1000
CCOc1cc(C(=O)O)nc(OCC)c1-c1cn(C2CCOCC2)c2ncc(-c3c(C)noc3C)cc12 [P-0373, 5-(5-(3,5-dimethylisoxazol-4-yl)-1-(tetrahydro-2H-pyran-4-yl)-1H-pyrrolo[2,3-b]pyridin-3-yl)-4,6-diethoxypicolinic acid]	0.1 to 1000
CCOc1cc(C(=O)O)c(F)c(OCC)c1-c1cn(C2CCOCC2)c2ncc(-c3c(C)noc3C)cc12 [P-0374, 4-(5-(3,5-dimethylisoxazol-4-yl)-1-(tetrahydro-2H-pyran-4-yl)-1H-pyrrolo[2,3-b]pyridin-3-yl)-3,5-diethoxy-2-fluorobenzoic acid]	0.1 to 1000
CCOc1cc(C(=O)O)c(F)cc1-c1cn(C2CCOCC2)c2ncc(-c3c(C)noc3C)cc12 [P-0375, 4-(5-(3,5-dimethylisoxazol-4-yl)-1-(tetrahydro-2H-pyran-4-yl)-1H-pyrrolo[2,3-b]pyridin-3-yl)-5-ethoxy-2-fluorobenzoic acid]	0.1 to 1000
CCOc1nc(C(=O)O)ccc1-c1cn(C2CCOCC2)c2ncc(-c3c(C)noc3C)cc12 [P-0376, 5-(5-(3,5-dimethylisoxazol-4-yl)-1-(tetrahydro-2H-pyran-4-yl)-1H-pyrrolo[2,3-b]pyridin-3-yl)-6-ethoxypicolinic acid]	0.1 to 1000
CCOc1cc(C(=O)O)c(F)cc1-c1cn(-c2ccccc2F)c2ncc(-c3c(C)noc3C)cc12 [P-0377, 4-(5-(3,5-dimethylisoxazol-4-yl)-1-(2-fluorophenyl)-1H-pyrrolo[2,3-b]pyridin-3-yl)-5-ethoxy-2-fluorobenzoic acid]	0.1 to 1000
Cc1noc(C)c1-c1cnc2c(c1)c(-c1ccc(C(=O)O)cc1OC(F)(F)F)cn2C1CCC1 [P-0378, 4-(1-cyclobutyl-5-(3,5-dimethylisoxazol-4-yl)-1H-pyrrolo[2,3-b]pyridin-3-yl)-3-(trifluoromethoxy)benzoic acid]	0.1 to 1000
Cc1noc(C)c1-c1cnc2c(c1)c(-c1ccc(C(=O)O)cc1OC1CC1)cn2C1CCOCC1 [P-0379, 3-cyclopropoxy-4-(5-(3,5-dimethylisoxazol-4-yl)-1-(tetrahydro-2H-pyran-4-yl)-1H-pyrrolo[2,3-b]pyridin-3-yl)benzoic acid]	0.1 to 1000
Cc1noc(C)c1-c1cnc2c(c1)c(-c1c(Cl)cc(C(=O)O)cc1OC(F)(F)F)cn2C(C1CCC1)C1CCC1 [P-0380, 3-chloro-4-(1-(dicyclobutylmethyl)-5-(3,5-dimethylisoxazol-4-yl)-1H-pyrrolo[2,3-b]pyridin-3-yl)-5-(trifluoromethoxy)benzoic acid]	0.1 to 1000
Cc1noc(C)c1-c1cnc2c(c1)c(-c1c(Cl)cc(C(=O)O)cc1OC1CC1)cn2C1CCOCC1 [P-0381, 3-chloro-5-cyclopropoxy-4-(5-(3,5-dimethylisoxazol-4-yl)-1-(tetrahydro-2H-pyran-4-yl)-1H-pyrrolo[2,3-b]pyridin-3-yl)benzoic acid]	0.1 to 1000
Cc1noc(C)c1-c1cnc2c(c1)c(-c1ccc(C(=O)O)cc1OC(F)(F)F)cn2C1CCCC1 [P-0382, 4-(1-cyclopentyl-5-(3,5-dimethylisoxazol-4-yl)-1H-pyrrolo[2,3-b]pyridin-3-yl)-3-(trifluoromethoxy)benzoic acid]	0.1 to 1000
Cc1noc(C)c1-c1cnc2c(c1)c(-c1ccc(C(=O)O)cc1OC(F)(F)F)cn2C1(C)CCOC1 (stereo not shown) [P-0383, 4-(5-(3,5-dimethylisoxazol-4-yl)-1-(3-methyltetrahydrofuran-3-yl)-1H-pyrrolo[2,3-b]pyridin-3-yl)-3-(trifluoromethoxy)benzoic acid]	0.1 to 1000
Cc1noc(C)c1-c1cnc2c(c1)c(-c1ccc(C(=O)O)cc1OC(F)(F)F)cn2-c1cnc(C2CC2)nc1 [P-0384, 4-(1-(2-cyclopropylpyrimidin-5-yl)-5-(3,5-dimethylisoxazol-4-yl)-1H-pyrrolo[2,3-b]pyridin-3-yl)-3-(trifluoromethoxy)benzoic acid]	0.1 to 1000
Cc1noc(C)c1-c1cnc2c(c1)c(-c1ccc(C(=O)O)cc1OC(F)(F)F)cn2C1(C)CCOCC1 [P-0385, 4-(5-(3,5-dimethylisoxazol-4-yl)-1-(4-methyltetrahydro-2H-pyran-4-yl)-1H-pyrrolo[2,3-b]pyridin-3-yl)-3-(trifluoromethoxy)benzoic acid]	0.1 to 1000
Cc1noc(C)c1-c1cnc2c(c1)c(-c1c(Cl)cc(C(=O)O)cc1OC(F)(F)F)cn2-c1cnc(C2CC2)nc1 [P-0386, 3-chloro-4-(1-(2-cyclopropylpyrimidin-5-yl)-5-(3,5-dimethylisoxazol-4-yl)-1H-pyrrolo[2,3-b]pyridin-3-yl)-5-(trifluoromethoxy)benzoic acid]	0.1 to 1000
Cc1noc(C)c1-c1cnc2c(c1)c(-c1ccc(C(=O)O)cc1OCC(F)F)cn2-c1cnc(C2CC2)nc1 [P-0387, 4-(1-(2-cyclopropylpyrimidin-5-yl)-5-(3,5-dimethylisoxazol-4-yl)-1H-pyrrolo[2,3-b]pyridin-3-yl)-3-(2,2-difluoroethoxy)benzoic acid]	0.1 to 1000
